According to patent publication US20220168384A1, “Anti-Bacterial Combination Therapy” (McMaster University, priority 2019, published 2022):

Legend:
P. aeruginosa PAO1 [1] = test: TS dose response assay (biofilm and planktonic growth); type: cell-based, Pseudomonas aeruginosa
Description: Briefly, P. aeruginosa was inoculated in 5 mL of LB and grown at 37° C. overnight, shaking at 200 rpm, and subsequently standardized to an OD600 of ˜ 0.1 in 10:90. For the initial screen, 1 mM compound stocks in DMSO were diluted 1:100 in standardized cell suspension (1.5 μL of compound stock in 148.5 μL of cell suspension) to a final concentration of 10 μM. Control wells contained 10:90 plus 1% DMSO (sterility control) or standardized cell suspension plus 1% DMSO (growth control). Biofilms were formed on polystyrene peg lids (Nunc). After placement of the peg lid, the plate was sealed with parafilm to prevent evaporation and incubated for 16 h at 37° C., 200 rpm. Following incubation, the 96-peg lid was removed and planktonic density in the 96 well plate measured at OD600 to assess the effect of test compounds on bacterial growth. The lid was transferred to a new microtiter plate containing 200 μl of 1× phosphate-buffered saline (PBS) per well for 10 min to wash off any loosely adherent bacterial cells, then to a microtiter plate containing 200 μL of 0.1% (wt/vol) crystal violet (CV) per well for 15 min. Following staining, the lid was washed with 70 mL of dH2O, in a single well tray, for 10 min. This step was repeated four times to ensure complete removal of excess CV. The lid was transferred to a 96-well plate containing 200 μL of 33% (vol/vol) acetic acid per well for 5 min to elute the bound CV. The absorbance of the eluted CV was measured at 600 nm (BioTek ELx800), and the results plotted as percent of the DMSO control using Prism (Graphpad). Screens were performed in duplicate. […]. Compounds of interest were further evaluated using the same assay but over a wider range of concentrations (dose-response assay). […].
For TS dose response assays, TS stock solutions were diluted in DMSO and 2 μL of the resulting solutions plus 148 μL of a bacterial suspension standardized to an OD600 of ˜0.1 in 10:90 were added to a 96 well plate in triplicate, as described above. Control wells contained 148 μL of 10:90+1.3% DMSO (sterility control) or standardized bacterial suspension+1.3% DMSO (growth control). For ethylenediamine-N,N′-bis(2-hydroxyphenylacetic acid) (EDDHA) alone or with FeCl3 experiments, 2 μL of each were added as aqueous solutions to reach final concentrations of 0.1 μM EDDHA and 100 μM FeCl3, and the amount of bacterial suspension adjusted to keep the total well volume at 150 μL. Controls for EDDHA and FeCl3 were 2 μL of sterile dH2O. Biofilms were grown for 16 h at 37° C., 200 rpm, then stained and quantified as described above. Assays were performed in triplicate and results were graphed using Prism (Graphpad) as a percentage of the DMSO control.
Deletion mutants lacking the outer membrane components of the 4 major resistance-nodulation-division (RND) efflux systems of P. aeruginosa (MexAB-OprM, MexXY-OprM, MexCD-OprJ, and MexEF-OpmD) were generated. Briefly, the pairs of primers listed in Table 3 were used to amplify regions up- and downstream of the gene to be deleted. The PCR products were digested with the restriction enzymes indicated in the primer sequences and the resulting fragments ligated into the suicide vector pEX18Gm. After DNA sequencing validation of the constructs, they were introduced into E. coli SM10 for biparental mating into P. aeruginosa PAO1. Mating mixtures were plated on Pseudomonas isolation agar containing 200 μg/ml gentamicin (Gm) to counterselect the donor. Gm-sensitive double recombinants were selected on LB agar, with no salt and with 5% (wt/vol) sucrose. Gm-sensitive deletion mutants were identified by PCR and validated by DNA sequencing of the deletion junction.

P. aeruginosa PAO1 [2] = test: Checkerboard assays of TS with DFP, DSX or 10% serum; type: cell-based, Pseudomonas aeruginosa; details: 10:90 + 10% heat-inactivated mouse or human serum, regardless of DSX
Description: Human serum (Corning) and mouse serum (Equitech-Bio) were stored at −20° C. Sera were aliquoted into 5-ml culture tubes by thawing once at 37° C. for 30 min with occasional gentle mixing. Culture tubes were frozen at −20° C. until use. To make 10% serum solutions, serum was thawed for 10 min at 37° C. and then heat inactivated at 57° C. for 30 min. Two milliliters of heat-inactivated serum were added to 18 ml of 10:90 medium and gently mixed. This 10% serum solution was used for checkerboard assays.
Checkerboard assays were set-up using Nunc 96-well plates in an 8-well by 8-well format. Two columns were allocated for vehicle controls and two columns for sterility controls. Vehicle controls contained 2 μL DMSO plus 2 μL DFP solvent for checkerboards with TS and DFP or 4 μL DMSO for TS and DSX, in 146 μL of 10:90 medium or 10% serum inoculated with PA14 or PAO1-KP as described in Growth Curves. Sterile controls contained the same components in 10:90 medium or 10% serum, without cells. Serial dilutions of TS—with 17 μg/mL being the highest final concentration—were added along the y axis of the checkerboard (increasing concentration from bottom to top) whereas serial dilutions of DFP or DSX—with 512 μg/mL being the highest final concentration—were added along the x axis (increasing concentration from left to right). The final volume of each well was 150 μL and each checkerboard was repeated at least three times. Plates were incubated and the final OD600 determined as detailed above.

E. coli BW25113 = test: Thiostrepton susceptibility of E. coli in MHB versus 10:90; type: cell-based, Escherichia coli; details: 10:90 medium; up to 10 μM (17 μg/ml) TS
Excerpt: (§1) The susceptibility of P. aeruginosa PA14, E. coli BW25113, A. baumannii C0286, and S. aureus USA300 was compared in MHB versus 10:90 medium. E. coli lacks FpvAB and is resistant to TS in both media.

[3] = tested on: methicillin-resistant Staphylococcus aureus USA300; test: Thiostrepton susceptibility of S. aureus in MHB versus 10:90; type: cell-based; details: both 10:90 medium and MHB
Excerpt: as §1

[4] = Chrome azurol S (CAS) plate assay; type: physicochemical; details: 5 μl of 2 mg/ml; room temperature 1 h
[5] = PAO1, 10:90 medium, dose-dependent, up to 10 μM TS

SMILES: C=C(NC(=O)C(=C)NC(=O)c1csc(C2=N[C@@H]3c4csc(n4)[C@H]4NC(=O)c5csc(n5)[C@H]([C@](C)(O)[C@@H](C)O)NC(=O)[C@H]5CSC(=N5)/C(=C/C)NC(=O)[C@H]([C@@H](C)O)NC(=O)c5csc(n5)[C@]3(CC2)NC(=O)[C@H](C)NC(=O)C(=C)NC(=O)[C@H](C)NC(=O)[C@H]([C@@H](C)CC)N[C@@H]2C=Cc3c([C@H](C)O)cc(nc3[C@H]2O)C(=O)O[C@@H]4C)n1)C(N)=O [TS, thiostrepton]
- planktonic cell density and biofilm stimulation with EDDHA and FeCl3 (P. aeruginosa PAO1 [1]; PAO1, 10:90 + 0.1 μM EDDHA + 100 μM FeCl3): increased planktonic cell density and reduced biofilm stimulation
- biofilm stimulation and growth inhibition with EDDHA (P. aeruginosa PAO1 [1]; PAO1, 10:90 + 0.1 μM EDDHA versus 10:90 alone): shifted biofilm stimulation and growth inhibition to lower concentrations of TS
- biofilm formation (P. aeruginosa PAO1 [1]; [5]): stimulated biofilm formation
- planktonic cell density (P. aeruginosa PAO1 [1]; [5]): decreased planktonic cell density
- TS concentrations at which planktonic cell density decreased to below the level of detection (P. aeruginosa PAO1 [1]; PAO1, VBMM): > 0.63 µM
- TS susceptibility on supplementation with casamino acids (P. aeruginosa PAO1 [1]; PAO1, VBMM + 0.1% casamino acids): no change in TS susceptibility
- TS susceptibility on supplementation with MgCl2 (P. aeruginosa PAO1 [1]; PAO1, VBMM + 100 mM MgCl2): no effect on susceptibility
- TS susceptibility of mutants lacking the major efflux pumps (P. aeruginosa PAO1 [1]; PAO1 efflux deletion mutants): near-wild-type susceptibility
- TS susceptibility on deletion of peptide transport systems (P. aeruginosa PAO1 [1]; simultaneous deletion of components of Opp (Npp) and Spp): no effect on TS susceptibility
- concentration of TS required to inhibit growth in serum (P. aeruginosa PAO1 [2]): markedly decreased
- growth (E. coli BW25113): unaffected
- TS concentration inhibiting growth [3]: < 40 nM
- decolorization of CAS agar (iron binding) [4]: lack of a color change
